Experiments:
[1] = tested on: carrageenan-induced paw edema model in rats; assay: Carrageenan-induced paw edema model; assay type: in vivo; conditions: female Lewis rat; 10 mg/kg oral, 30 minutes before carrageenan; paw volume 3 hr after injection; read-out: Inhibition ratio of paw edema (%)
Description: The inhibitory effect for paw edema using carrageenan-induced paw edema model in rats is known as one of the general methods for testing the inhibitory effect on inflammation on the joint and the like. Therefore, the inhibitory effect of the present compound for paw edema was carried out, the inhibition rate of paw edema was calculated, and then the anti-inflammatory effect of the present compound was evaluated based on the rate. The concrete method of the test is described below.
A 2 mg/mL test compound suspension was prepared by adding 1% methyl cellulose (base) to the test compound.
1) The weight and right hind paw volume of female Lewis rat (8˜10 weeks) were measured before drug administration.
2) The test compound suspension was administered at 10 mg/kg to the test compound group. Meanwhile, 1% methyl cellulose was administered orally at 5 mL/kg to the sham-operation group and vehicle group (control group).
3) After 30 minutes from oral administration, 0.1 mL of a 1% w/v carrageenan/distilled water solution was subcutaneously injected into right foot pad. 0.1 mL of distilled water was subcutaneously injected for sham-operation group.
4) The right hind paw volume was measured 3 hr after injection of carrageenan or distilled water.
(Formulation Concerning Estimation of Drug Activity) The increase ratio of paw volume (%)=100×(right hind paw volume 3 hr after injection of carrageenan or distilled water (mL)−right hind paw volume before the test compound administration (mL))/right hind paw volume before the test compound administration (mL) (Calculation Equation 1) The inhibition ratio of paw edema (%)=100−100×(the increase ratio of paw volume of each test compound group (%)−the increase ratio of paw volume of sham-operation group (%))/(the increase of paw volume of vehicle group (%)−the increase of paw volume of sham-operation group (%)) (Calculation Equation 2) (Test Results and Discussion)

[2] = tested on: allergic conjunctivitis model in mice; assay: Inhibitory effect on vascular hyper-permeability in allergic conjunctivitis model; assay type: in vivo; conditions: male BALB/c mice, ovalbumin-sensitized; 1% (W/V) suspension instilled 15 min, 1 hr and 3 hrs before ovalbumin; Evans blue dye leakage; mean of 6 eyes
Description: In order to evaluate anti-allergic effect of the present compound, the inhibitory effect on the vascular hyper-permeability in allergic conjunctivitis model in mice was examined. This effect was calculated based on dye leakages of vehicle-treated group (control group) and test compound-treated group.
By adding 0.5% polysorbate 80/saline to the test compound, a 1% (W/V) test compound suspension was prepared.
1) Ovalbumin absorbed on aluminum hydroxide gel was dissolved in saline (20 μg ovalbumin/mL), and male BALB/c mice, 6 weeks old, were actively sensitized to the antigen by intraperitoneal injections of 500 μL of it.
2) On the 6th day from sensitization, sensitized mice were boosted by additional intraperitoneal injections of 500 μL ovalbumin absorbed on aluminum hydroxide gel (20 μg ovalbumin/mL).
3) On the 11th day, 12th day, 13th day, 14th day and 15th day from the first sensitization, allergic conjunctivitis were induced by instillations to the right eyes of the mice of […] of 50% glycerol solution containing 15% (W/V) ovalbumin.
4) […] of test compound suspension per eye was instilled to the right eye of the above mice 15 min, 1 hr and 3 hrs before ovalbumin instillation (three times) on the 15th day from sensitization. In vehicle-treated group (control group), the mice were instilled with 0.5% polysorbate 80/saline in substitution for test compound suspension.
5) Just before ovalbumin instillation on the 15th day from sensitization, all animals received a tail intravenous injection of 0.1% Evans blue dye. The right periocular tissues of the mice, which were the leaked parts of dye, were collected 30 min after ovalbumin instillation. The dye was extracted from the tissues with the dye extraction liquid. Then the absorbance of the dye extract was measured. The dye leakage was calculated from the absorbance value, and the inhibition ratio of the vascular hyper-permeability of test compound-treated group was calculated according to calculation equation 1. The inhibition ratio of the vascular hyper-permeability of test compound-treated group (%)=(1−Ax/Ao)×100 (Calculation Equation 1) • Ao: Dye leakage in vehicle-treated group (control group) • Ax: Dye leakage in test compound-treated group (Test Results and Discussion)

[3] = tested on: IL-6 production induced by lipopolysaccharide (LPS) in human corneal epithelial cells (HCE-T); assay: Inhibition of LPS-induced IL-6 production in human corneal epithelial cells (GR agonist activity); assay type: cell-based; conditions: Corneal epithelial cell, 10 μL of 100 μM test compound solution per well, 4 hours incubation, efficacy relative to DEX
Description: In order to evaluate a GR agonist activity of the present compound, the inhibitory effects on the IL-6 production induced by lipopolysaccharide (LPS) in human corneal epithelial cells. IL-6 levels in the conditioned medium were measured using the HTRF human IL-6 Kit (boehringer-Ingelheim, Cat No. 62IL6PEB), and the procedure was carried out according to the protocol attached to the kit. Hereinafter, the specific method will be described.
LPS solution: After LPS was dissolved in phosphate buffer solution (hereinafter referred to as PBS(−)), the resulting solution was diluted with 10% FBS-DMEM/F12 medium, whereby a 1 μg/mL LPS solution was prepared.
After a test compound was dissolved in dimethylsulfoxide (hereinafter referred to as DMSO), the resulting solution was diluted with 10% FBS-DMEM/F12 medium, whereby a 100 μM test compound solution was prepared. A 100 μM DEX solution was prepared by the same method, and the inhibitory ratio of IL-6 production of DEX was evaluated to use for calculating efficacy (% DEX).
Used cell: SV40-immortalized human corneal epithelial cells (HCE-T) (RIKEN)
1) HCE-T cells were harvested, and seeded at 2.0×10^4 cells/0.1 mL/well in a 96-well plate.
2) After incubation overnight, the medium was removed and a 80 μL of new 10% FBS-DMEM/Ham's F12 medium was added into each well.
3) A 10 μL of test compounds solution was added into each well.
4) A 10 μL of LPS solution was added into each well.
5) As a negative control, a 10 μL of 10% FBS-DMEM/Ham's F12 medium was added into each well instead of a test compound solution and a LPS solution.
6) As a positive control, a 10 μL of 10% FBS-DMEM/Ham's F12 medium containing 1% DMSO was added into each well instead of a test compound solution.
7) After 4 hours incubation, supernatants were collected and IL-6 levels in the supernatants were quantitated using the HTRF human IL-6 Kit.
8) The inhibition ratio of IL-6 production (%) was calculated according to the following equation.
The inhibition ratio of IL-6 production (%) was calculated according to the following equation. The inhibition ratio of IL-6 production (%)=100×{1−(IL-6 level in each group−mean value of IL-6 level in negative control)/(mean value of IL-6 level in positive control−mean value of IL-6 level in negative control)} (%)
Furthermore, the inhibition ratio of IL-6 production (efficacy (% DEX)) was also calculated according to the following equation. Efficacy(% DEX)=100×{(mean value of IL-6 inhibition in compound-treated group)/(mean value of IL-6 inhibition in DEX-treated group)} (%) (Results and Discussion)

With `CCCS(=O)(=O)Oc1ccc(-c2ccc3c(c2CNc2ccccc2OC)N(C)C(=O)C(C)(C)N3)c(OC)c1` [Compound No. 2-7, 8-(2-Methoxyphenylaminomethyl)-7-(2-methoxy-4-propylsulfonyl-oxyphenyl)-1,3,3-trimethyl-3,4-dihydro-1H-quinoxalin-2-one] the inhibition in vivo at 10 mg/kg [1] was 52%, the “The inhibition ratio of the vascular hyper-permeability (%)” value (“The inhibition ratio … (%)” for short) [2] was 35% and the Emax [3] was 94%.
`COc1cc(OS(=O)(=O)CCC(F)(F)F)ccc1-c1ccc2c(c1COc1cc(F)ccc1C)N(C)C(=O)C(C)(C)N2` [Compound No. 1-12, 8-(5-Fluoro-2-methylphenoxymethyl)-7-[2-methoxy-4-(3,3,3-trifluoro-propylsulfonyloxy)phenyl]-1,3,3-trimethyl-3,4-dihydro-1H-quinoxlin-2-one] was tested, and the “The inhibition ratio … (%)” value [2] was 15% and the Emax [3] was 100%.
`COc1ccccc1NCc1c(-c2ccc(OS(=O)(=O)C3CCCC3)cc2OC)ccc2c1N(C)C(=O)C(C)(C)N2` [Compound No. 2-6, 7-(4-Cyclopentylsulfonyloxy-2-methoxypheny1)-8-(2-methoxyphenylaminomethyl)-1,3,3-trimethyl-3,4-dihydro-1H-quinoxalin-2-one] was tested, and the “The inhibition ratio … (%)” value [2] was 13% and the Emax [3] was 82%.
`COc1cc(OS(=O)(=O)C(C)C)ccc1-c1ccc2c(c1COC(=O)c1ccc(C)s1)N(C)C(=O)C(C)(C)N2` [Compound No. 1-23, 7-(4-Isopropylsulfonyloxy-2-methoxyphenyl)-8-(5-methylthiophen-2-ylcarbonyloxymethyl)-1,3,3-trimethyl-3,4-dihydro-1H-quinoxalin-2-one] was tested, and the “The inhibition ratio … (%)” value [2] was 10% and the Emax [3] was 83%.
For `COc1ccccc1NCc1c(-c2ccc(OS(=O)(=O)C(C)C)cc2OC)ccc2c1N(C)C(=O)C(C)(C)N2` [Compound No. 2-5], the inhibition in vivo at 10 mg/kg [1] was 40% and the Emax [3] was 74%.
With `COc1cc(OS(=O)(=O)C2CC2)ccc1-c1ccc2c(c1COc1cc([N+](=O)[O-])ccc1C)N(C)C(=O)C(C)(C)N2` [Compound No. 1-32, 7-(4-Cyclopropylsulfonyloxy-2-methoxyphenyl)-8-(2-methyl-5-nitrophenoxymethyl)-1,3,3-trimethyl-3,4-dihydro-1H-quinoxalin-2-one] the inhibition in vivo at 10 mg/kg [1] was 61% and the Emax [3] was 90%.
In the case of `CCS(=O)(=O)Oc1ccc(-c2ccc3c(c2COc2cc(F)ccc2C)N(C)C(=O)C(C)(C)N3)c(OC)c1` [Compound No. 1-6, 7-(4-Ethylsulfonyloxy-2-methoxyphenyl)-8-(5-fluoro-2-methyl-phenoxymethyl)-1,3,3-trimethyl-3,4-dihydro-1H-quinoxalin-2-one], the inhibition in vivo at 10 mg/kg [1] is reported as 63% and the Emax [3] is reported as 86%.
In the case of `CCCS(=O)(=O)Oc1ccc(-c2ccc3c(c2COc2cc(F)ccc2C)N(C)C(=O)C(C)(C)N3)c(OC)c1` [Compound No. 1-2, 8-(5-Fluoro-2-methylphenoxymethyl)-7-(2-methoxy-4-propyl-sulfonyloxyphenyl)-1,3,3-trimethyl-3,4-dihydro-1H-quinoxalin-2-one], the “The inhibition ratio … (%)” value [2] is reported as 37% and the Emax [3] is reported as 91%.
`COc1cc(OS(=O)(=O)C2CC2)ccc1-c1ccc2c(c1CNc1cc(F)ccc1C)N(C)C(=O)C(C)(C)N2` gave an inhibition in vivo at 10 mg/kg [1] of 52% and an Emax [3] of 81%.
For `CCCCS(=O)(=O)Oc1ccc(-c2ccc3c(c2COc2cc(F)ccc2C)N(C)C(=O)C(C)(C)N3)c(OC)c1` [Compound No. 1-5, 7-(4-Butylsulfonyloxy-2-methoxyphenyl)-8-(5-fluoro-2-methyl-phenoxymethyl)-1,3,3-trimethyl-3,4-dihydro-1H-quinoxalin-2-one], the “The inhibition ratio … (%)” value [2] was 30% and the Emax [3] was 88%.
For `CCCS(=O)(=O)Oc1ccc(-c2ccc3c(c2COC(=O)c2ccc(C)s2)N(C)C(=O)C(C)(C)N3)c(OC)c1` [Compound No. 1-22, 7-(2-Methoxy-4-propylsulfonyloxyphenyl)-8-(5-methylthiophen-2-ylcarbonyloxymethyl)-1,3,3-trimethyl-3,4-dihydro-1H-quinoxalin-2-one], the “The inhibition ratio … (%)” value [2] was 21% and the Emax [3] was 99%.
In the case of `CCCS(=O)(=O)Oc1ccc(-c2ccc3c(c2CNc2cc(F)ccc2C)N(C)C(=O)C(C)(C)N3)c(OC)c1` [Compound No. 1-44, 8-(5-Fluoro-2-methylphenylaminomethyl)-7-(2-methoxy-4-propyl-sulfonyloxyphenyl)-1,3,3-trimethyl-3,4-dihydro-1H-quinoxalin-2-one], the “The inhibition ratio … (%)” value [2] is reported as 22% and the Emax [3] is reported as 88%.
For `COc1cc(OS(=O)(=O)C(C)C)ccc1-c1ccc2c(c1COc1cc(F)ccc1C)N(C)C(=O)C(C)(C)N2` [Compound No. 1-7, 8-(5-Fluoro-2-methylphenoxymethyl)-7-(4-isopropylsulfonyloxy-2-methoxyphenyl)-1,3,3-trimethyl-3,4-dihydro-1H-quinoxalin-2-one], the inhibition in vivo at 10 mg/kg [1] was 43% and the Emax [3] was 94%.
`COc1cc(OS(=O)(=O)C2CCCC2)ccc1-c1ccc2c(c1COc1cc(F)ccc1C)N(C)C(=O)C(C)(C)N2` [Compound No. 1-16, 7-(4-Cyclopentylsulfonyloxy-2-methoxyphenyl)-8-(5-f1uoro-2-methylphenoxymethyl)-1,3,3-trimethly-3,4-dihydro-1H-quinoxalin-2-one] was tested, and the “The inhibition ratio … (%)” value [2] was 18% and the Emax [3] was 91%.
With `COc1cc(OS(=O)(=O)CC(C)C)ccc1-c1ccc2c(c1COc1cc(F)ccc1C)N(C)C(=O)C(C)(C)N2` [Compound No. 1-11, 8-(5-Fluoro-2-methylphenoxymethyl)-7-(4-isobutylsulfonyloxy-2-methoxyphenyl)-1,3,3-trimethyl-3,4-dihydro-1H-quinoxalin-2-one] the “The inhibition ratio … (%)” value [2] was 20% and the Emax [3] was 99%.

Reference: US8664221B2 (Santen Pharmaceutical Co., Ltd., priority 2008, dated 2014)
